# Test results reported in patent publication US20250082611A1, “DOSING REGIMEN FOR AN NLRP3 INHIBITOR IN THE TREATMENT OF OSTEOARTHRITIS” (Novartis AG, priority 2021, published 2025).
# Entries after “also recorded” stand apart in the source; their conditions may differ. Where two headings read alike, the source gives them in different places.
# How the values were obtained:
# [1] = First-in-human study: plasma pharmacokinetics in healthy subjects; format: in vivo; conditions: for median lag time: fed; for half-life: read-out: mean t1/2 (converted); for Tmax: read-out: median tmax; for CL renal: urine, read-out: Renal clearance (converted); for dose proportionality of exposure: single doses
# From the text: The study design comprised of 4 parts: single ascending dose (SAD; Part A), relative bioavailability of tablet formulations (Part B), multiple ascending dose (MAD; Part C), and relative bioavailability and food effect (Part D) (FIG. 2; RF=Reference Formulation (crystalline suspension); T2=Test Formulation 2 (crystalline tablet); T3=Test Formulation 3 (spray-dried dispersion suspension); T4=Test Formulation 4 (encapsulated crystalline tablet)). In each group of Parts A and C, 8 subjects were randomized in a 3:1 ratio to receive Compound IA (6 subjects) or matching placebo (2 subjects).
# For Part A, eight cohorts of eight eligible subjects were enrolled. Each subject received a single oral dose of Compound IA (3, 10, 30, 100, 300 mg of crystalline suspension and 100, 300, 600 mg of spray-dried dispersion (SDD) under fasted conditions. As this was a FIH study, two sentinel subjects were dosed first, at least 24 hours before the rest of the cohort was dosed, to assure maximum safety. Part B was skipped because the data from Part A provided for an adequate comparison of crystalline and SDD formulations.
# For part C, eligible subjects were enrolled in six different cohorts. […] Subjects were dosed in Part C following review available safety, tolerability and PK data from preceding groups in Part A.
# […] […] Based on these doses, subjects were randomly assigned to 1 of 6 treatment sequences (1 subject per sequence) prepared using Williams design.
# In single-dose part, blood samples were collected for determining the concentrations of Compound IA at the following time points relative to dosing on Day 1: at pre-dose and 0.25, 0.5, 0.75, 1, 1.5, 2, 3, 4, 6, 8, 12, 24, 36, and 48 hours post-dose, and at the follow-up visit. In multiple-dose part, relative to dosing on Days 1 and 14, samples were collected at pre-dose and 0.25, 0.5, 0.75, 1, 1.5, 2, 3, 4, 6, 8, and 12 hours post-dose; on Days 2, 4, 7, 9, and 11: at pre-dose; after the last dose on Day 14: at 24 and 36 hours (Day 15), and 48 hours (Day 16) post-dose; and at the follow-up visit.
# All data were summarized using descriptive statistics and were listed and summarized in tabular and/or graphical form. Descriptive statistics for all relevant PK parameters included: n, arithmetic mean, standard deviation (SD), coefficient of variation (CV %), minimum, median, maximum, geometric mean, and geometric CV %. For tmax only median, minimum, and maximum are presented. PK parameters were calculated using noncompartmental methods using software Phoenix Version 8.1. Concentrations below the lower limit of quantification (LLOQ) were treated as zero in summary statistics for concentration data only. The linear trapezoidal rule was used for AUC calculation. Regression analysis of the terminal plasma elimination phase for the determination of t1/2 included at least 3 data points after Cmax. Parameters with an adjusted r^2 below 0.80 were flagged but included in the descriptive statistics. The parameters AUC0-inf, % AUCextra, CL/F, and VZ/F with an % AUCextra above 20% were excluded from the descriptive statistics.
# In Part A, dose proportionality was explored using a regression power model relating logarithmically (log)-transformed Cmax, AUC0-last, and AUC0-inf to the log-transformed dose level. Point estimates for the intercept and the slope and corresponding 90% confidence intervals (CIs) for the slope were calculated. For Part C, dose proportionality was not explored. In Part D, the relative bioavailability of the Test Formulation (crystalline tablet, SDD and crystalline tablet) versus the Reference Formulation (crystalline suspension), as well as the effect of food, was explored using an analysis of variance (ANOVA) model on the PK data.
# For the following treatments, the least-squares geometric mean ratios were presented together with 90% CIs: 100 mg Compound IA tablet fasted over 100 mg Compound IA suspension fasted, and 100 mg Compound IA tablet fed over 100 mg Compound IA tablet fasted.
# CYP3A = test: In vitro metabolism studies, CYP3A induction and substrate; format: in vitro ADME
# From the text: Therefore, investigators, at their discretion, may administer concomitant medications known to be metabolized by CYP3A4/5. Patients receiving such medications may require dose titration or increase of the concomitant drug. […] Investigators may, at their discretion, co-administer known inhibitors of CYP3A, but their duration should be kept as short as possible, and patients must be closely monitored.
# [2] = single dose 100 mg, crystalline suspension
compound,measurement,setting,value
"CC(C)(O)c1ncc([S@](N)(=O)=NC(=O)Nc2c3c(cc4c2CCC4)CCC3)s1 [Compound IA, (R)-N′-((1,2,3,5,6,7-hexahydro-s-indacen-4-yl)carbamoyl)-2-(2-hydroxypropan-2-yl) thiazole-5-sulfonimidamide]","increase of AUC, fed (high-fat, high-calorie meal) vs fasted",[1]; 100 mg crystalline tablet,1.49 fold
same,"increase of Cmax, fed (high-fat, high-calorie meal) vs fasted",[1]; 100 mg crystalline tablet,2.05 fold
same,Cmax lower for crystalline tablet than suspension,"[1]; 100 mg, fasted",78%
same,multiple dose PK,"[1]; after 2 weeks, multiple doses and formulations",linear
same,absorption of crystalline material,[1]; doses≥100 mg,solubility-limited absorption
same,median lag time,[1]; encapsulated crystalline tablets 25 mg bid,0.75 h
same,median lag time,[1]; encapsulated crystalline tablets 50 mg bid,0.25 h
same,AUCs of subjects with heterogenous CYP2C9 genotypes versus normal CYP2C9 activity,"[1]; human, in vivo",higher
same,oral clearance relative to human liver blood flow,"[1]; human, in vivo, po",≤ 2%
same,renal elimination as share of oral dose,"[1]; human, in vivo, po",less than 0.8%
same,half-life,"[1]; human, plasma, oral, 100 mg, suspension formulation",17.7 h
same,half-life,"[1]; human, plasma, oral, across QD and BID dose levels",9.83 to 16.2 h
same,Vd/F,"[1]; human, plasma, oral, steady state, across QD and BID dose levels, read-out: Vss/F",12.6 to 23.3 L
same,Tmax,"[1]; human, plasma, po, single oral doses 30-600 mg, fasted",1.5 to 3 h
same,Tmax,"[1]; human, plasma, po, single oral doses of suspensions, fasted, across dose levels",0.76 to 3 h
same,CL renal,"[1]; human, oral, Day 1",~0.0667 mL/min
same,CL renal,"[1]; human, oral, steady state (Day 14)",~0.133 mL/min
same,drug accumulation in reaching steady state,[1]; once daily dosing,about 1.2 fold
same,"increase of AUC0-last, fed compared to fasted",[1]; [2],1.49 fold
same,"increase of Cmax, fed compared to fasted",[1]; [2],2.05 fold
same,dose proportionality of exposure,"[1]; SDD suspension 100-600 mg, fasted",dose-proportionally; also recorded: dose-proportional increase
same,dose proportionality of exposure,"[1]; crystalline suspension 3-300 mg, fasted",less than dose-proportional
same,median tmax,"[1]; single oral doses of suspensions, fasted, across dose levels",0.76 to 3.0 h
same,CLss/F,"[1]; steady state, across QD and BID dose levels",~1.0 L/h
same,drug accumulation in reaching steady state,[1]; twice daily dosing,2 fold
same,CYP3A substrate status,CYP3A,substrate of CYP3A
same,induction of metabolism of CYP3A substrates,CYP3A,might have the potential to induce
